Laboratory results from the supplement of paper PMC10307832.

Assays:
Experiment in all cases: relative viability (nuclei count vs DMSO), 5 days (fraction); higher = more cells survive
LXF-289 = tested on: LXF-289
How it was run: (§1)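 Relative viability divides the nuclei count in treated wells by that in vehicle wells. Lung cancer cell lines were seeded in 1536-well plates, dosed by pin tool the next day, and fixed and stained after 5 days in one step with final 0.05% Triton X-100, 1% formaldehyde and 1 ug/ml Hoechst. Dosing was a single drug or a fixed anchor-drug dose plus five library-drug doses (not always all listed) in √10 steps, and values are medians of duplicate plates imaged at 4×.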

NCI-H2170 = tested on: NCI-H2170
How it was run: as §1

NCI-H1944 = tested on: NCI-H1944
How it was run: as §1

UMC-11 = tested on: UMC-11
How it was run: as §1

NCI-H1915 = tested on: NCI-H1915
How it was run: as §1

NCI-H1755 = tested on: NCI-H1755
How it was run: as §1

NCI-H1792 = tested on: NCI-H1792
How it was run: as §1

SK-LU-1 = tested on: SK-LU-1
How it was run: as §1

HCC-366 = tested on: HCC-366
How it was run: as §1

COR-L 105 = tested on: COR-L 105
How it was run: as §1

NCI-H1793 = tested on: NCI-H1793
How it was run: as §1

NCI-H358 = tested on: NCI-H358
How it was run: as §1

NCI-H2085 = tested on: NCI-H2085
How it was run: as §1

LC-2-ad = tested on: LC-2-ad
How it was run: as §1

EPLC-272H = tested on: EPLC-272H
How it was run: as §1

LU99A = tested on: LU99A
How it was run: as §1

HCC-78 = tested on: HCC-78
How it was run: as §1

SW 900 = tested on: SW 900
How it was run: as §1

A-427 = tested on: A-427
How it was run: as §1

NCI-H1975 = tested on: NCI-H1975
How it was run: as §1

LCLC-97TM1 = tested on: LCLC-97TM1
How it was run: as §1

HOP-62 = tested on: HOP-62
How it was run: as §1

NCI-H460 = tested on: NCI-H460
How it was run: as §1

`CC1(C)CCC(c2ccc(Cl)cc2)=C(CN2CCN(c3ccc(C(=O)NS(=O)(=O)c4ccc(N[C@H](CCN5CCOCC5)CSc5ccccc5)c(S(=O)(=O)C(F)(F)F)c4)cc3)CC2)C1` [Navitoclax] + CC(=O)c1c(C)c2cnc(Nc3ccc(N4CCNCC4)cn3)nc2n(C2CCCC2)c1=O [Palbociclib] (partner 0.5 µM) showed a relative viability (LXF-289; first compound 0.005 µM) of 0.589, a relative viability (LXF-289; first compound 0.01581 µM) of 0.658 and a relative viability (LXF-289; first compound 0.05 µM) of 0.547. The relative viability (LXF-289; first compound 0.1581 µM) was 0.606, the relative viability (LXF-289; first compound 0.5 µM) was 0.627 and the relative viability (NCI-H2170; first compound 0.005 µM) was 0.391. For the same molecule, the relative viability (NCI-H2170; first compound 0.01581 µM) was 0.382, the relative viability (NCI-H2170; first compound 0.05 µM) was 0.409 and the relative viability (NCI-H2170; first compound 0.1581 µM) was 0.394. The relative viability (NCI-H2170; first compound 0.5 µM) was 0.377, the relative viability (NCI-H1944; first compound 0.005 µM) was 0.345 and the relative viability (NCI-H1944; first compound 0.01581 µM) was 0.364. It also gave a relative viability (NCI-H1944; first compound 0.1581 µM) of 0.3, a relative viability (NCI-H1944; first compound 0.5 µM) of 0.341 and a relative viability (UMC-11; first compound 0.005 µM) of 0.388. For the same molecule, the relative viability (UMC-11; first compound 0.01581 µM) was 0.305, the relative viability (UMC-11; first compound 0.05 µM) was 0.333 and the relative viability (UMC-11; first compound 0.1581 µM) was 0.322. It also gave a relative viability (UMC-11; first compound 0.5 µM) of 0.319, a relative viability (NCI-H1915; first compound 0.005 µM) of 0.585 and a relative viability (NCI-H1915; first compound 0.01581 µM) of 0.544. For the same molecule, the relative viability (NCI-H1915; first compound 0.05 µM) was 0.499, the relative viability (NCI-H1915; first compound 0.1581 µM) was 0.507 and the relative viability (NCI-H1915; first compound 0.5 µM) was 0.509. The relative viability (NCI-H1755; first compound 0.005 µM) was 0.433, the relative viability (NCI-H1755; first compound 0.01581 µM) was 0.482 and the relative viability (NCI-H1755; first compound 0.05 µM) was 0.436. For the same molecule, the relative viability (NCI-H1755; first compound 0.1581 µM) was 0.477, the relative viability (NCI-H1755; first compound 0.5 µM) was 0.488 and the relative viability (NCI-H1792; first compound 0.005 µM) was 0.651. It also gave a relative viability (NCI-H1792; first compound 0.01581 µM) of 0.661, a relative viability (NCI-H1792; first compound 0.05 µM) of 0.563 and a relative viability (NCI-H1792; first compound 0.1581 µM) of 0.628. For the same molecule, the relative viability (NCI-H1792; first compound 0.5 µM) was 0.647, the relative viability (SK-LU-1; first compound 0.005 µM) was 0.396 and the relative viability (SK-LU-1; first compound 0.01581 µM) was 0.508. The relative viability (SK-LU-1; first compound 0.05 µM) was 0.337, the relative viability (SK-LU-1; first compound 0.1581 µM) was 0.384 and the relative viability (SK-LU-1; first compound 0.5 µM) was 0.414. For the same molecule, the relative viability (HCC-366; first compound 0.005 µM) was 0.355, the relative viability (HCC-366; first compound 0.01581 µM) was 0.48 and the relative viability (HCC-366; first compound 0.1581 µM) was 0.35. The relative viability (HCC-366; first compound 0.5 µM) was 0.34, the relative viability (COR-L 105; first compound 0.005 µM) was 0.408 and the relative viability (COR-L 105; first compound 0.01581 µM) was 0.46. It also gave a relative viability (COR-L 105; first compound 0.05 µM) of 0.39, a relative viability (COR-L 105; first compound 0.1581 µM) of 0.427 and a relative viability (COR-L 105; first compound 0.5 µM) of 0.34. The relative viability (NCI-H1793; first compound 0.005 µM) was 0.312, the relative viability (NCI-H1793; first compound 0.01581 µM) was 0.281 and the relative viability (NCI-H1793; first compound 0.1581 µM) was 0.336. The relative viability (NCI-H1793; first compound 0.5 µM) was 0.295, the relative viability (NCI-H358; first compound 0.005 µM) was 0.128 and the relative viability (NCI-H358; first compound 0.01581 µM) was 0.147. For the same molecule, the relative viability (NCI-H358; first compound 0.05 µM) was 0.142, the relative viability (NCI-H358; first compound 0.1581 µM) was 0.121 and the relative viability (NCI-H358; first compound 0.5 µM) was 0.134. The relative viability (NCI-H2085; first compound 0.005 µM) was 0.45, the relative viability (NCI-H2085; first compound 0.01581 µM) was 0.456 and the relative viability (NCI-H2085; first compound 0.05 µM) was 0.379. The relative viability (NCI-H2085; first compound 0.1581 µM) was 0.482, the relative viability (NCI-H2085; first compound 0.5 µM) was 0.502 and the relative viability (LC-2-ad; first compound 0.005 µM) was 0.505. For the same molecule, the relative viability (LC-2-ad; first compound 0.01581 µM) was 0.452, the relative viability (LC-2-ad; first compound 0.05 µM) was 0.456 and the relative viability (LC-2-ad; first compound 0.1581 µM) was 0.413. For the same molecule, the relative viability (LC-2-ad; first compound 0.5 µM) was 0.412, the relative viability (EPLC-272H; first compound 0.005 µM) was 0.325 and the relative viability (EPLC-272H; first compound 0.05 µM) was 0.324. The relative viability (EPLC-272H; first compound 0.1581 µM) was 0.31, the relative viability (EPLC-272H; first compound 0.5 µM) was 0.297 and the relative viability (LU99A; first compound 0.005 µM) was 0.392. For the same molecule, the relative viability (LU99A; first compound 0.01581 µM) was 0.433, the relative viability (LU99A; first compound 0.1581 µM) was 0.437 and the relative viability (LU99A; first compound 0.5 µM) was 0.48. It also gave a relative viability (HCC-78; first compound 0.005 µM) of 0.509, a relative viability (HCC-78; first compound 0.01581 µM) of 0.428 and a relative viability (HCC-78; first compound 0.05 µM) of 0.441. It also gave a relative viability (HCC-78; first compound 0.1581 µM) of 0.448, a relative viability (HCC-78; first compound 0.5 µM) of 0.489 and a relative viability (SW 900; first compound 0.005 µM) of 0.565. The relative viability (SW 900; first compound 0.01581 µM) was 0.651, the relative viability (SW 900; first compound 0.1581 µM) was 0.55 and the relative viability (SW 900; first compound 0.5 µM) was 0.518. It also gave a relative viability (A-427; first compound 0.005 µM) of 0.502, a relative viability (A-427; first compound 0.01581 µM) of 0.512 and a relative viability (A-427; first compound 0.05 µM) of 0.516. It also gave a relative viability (A-427; first compound 0.1581 µM) of 0.514, a relative viability (A-427; first compound 0.5 µM) of 0.53 and a relative viability (NCI-H1975; first compound 0.005 µM) of 0.533. For the same molecule, the relative viability (NCI-H1975; first compound 0.01581 µM) was 0.661, the relative viability (NCI-H1975; first compound 0.05 µM) was 0.437 and the relative viability (NCI-H1975; first compound 0.1581 µM) was 0.532. For the same molecule, the relative viability (NCI-H1975; first compound 0.5 µM) was 0.585, the relative viability (LCLC-97TM1; first compound 0.005 µM) was 0.239 and the relative viability (LCLC-97TM1; first compound 0.01581 µM) was 0.215. For the same molecule, the relative viability (LCLC-97TM1; first compound 0.05 µM) was 0.166, the relative viability (LCLC-97TM1; first compound 0.1581 µM) was 0.203 and the relative viability (LCLC-97TM1; first compound 0.5 µM) was 0.241. For the same molecule, the relative viability (HOP-62; first compound 0.005 µM) was 0.449, the relative viability (HOP-62; first compound 0.01581 µM) was 0.442 and the relative viability (HOP-62; first compound 0.05 µM) was 0.429. For the same molecule, the relative viability (HOP-62; first compound 0.1581 µM) was 0.391, the relative viability (HOP-62; first compound 0.5 µM) was 0.448 and the relative viability (NCI-H460; first compound 0.005 µM) was 0.167. For the same molecule, the relative viability (NCI-H460; first compound 0.01581 µM) was 0.159, the relative viability (NCI-H460; first compound 0.05 µM) was 0.0945 and the relative viability (NCI-H460; first compound 0.1581 µM) was 0.217. It also gave a relative viability (NCI-H460; first compound 0.5 µM) of 0.13.
